Patent US4996227A, “3-(heteroarylalkyene)- and 3-(arylalkylene)-2,4(3H,5H)-heterocyclic diones as cancer chemotherapy drugs” (priority 1989, dated 1991)

Assays:
human tumor H5315 BREAST = assay: Human Tumor Stem Cell Assay, colony growth after one hour exposure; type: cell-based; details: LO: furandione 0.2 mcg/ml; standard drugs 10% of peak plasma concentration; 1 h
Description: (§1) The in vitro Human Tumor Stem Cell Assay procedure described as follows has several advantages for testing the effectiveness of chemotherapy drugs such as the 3-(heteroarylalkylene)-2,4(3H,5H)-furandiones. The first advantage is that fresh tumor cells from a variety of tumor types were used rather than a small number of cell lines which have undergone severe selection pressures as they are passed in vitro. The second advantage is that only the anchorage-independent tumor cells will form colonies in soft agar so that any non-malignant cells present in the sample will not form colonies. Perhaps the most important advantage, however, is the emphasis on cells which have the ability to form colonies. These cells, which are generally called stem cells, usually comprise only a small percentage of all tumor cells. They are thought to be the most important cells for growth and distant spread of a tumor. In particular, these cells have the potential to leave the primary tumor and form new tumors at distant sites (called metastases). It is the effectiveness against these very important stem cells that the Human Tumor Stem Cell Assay measures.
(§2) One of the 3-(heteroarylalkylene)-2,4(3H,5H)-furandione compounds, 3-[(5-methyl-2-thienyl) methylene]-2,4(3H,5H)-furandione was evaluated against a series of 10 human tumors in the in vitro Human Tumor Cell Assay, along with conventional and standard chemotherapy agents.
(§3) In the procedure, a single cell suspension was prepared from tumors excised from patients during therapeutic or diagnostic surgical procedures. The human tumor cells were exposed to known anticancer drugs or to [(5-methyl-2-thienyl)methylene]-2,4 (3H, 5H)-furandione at a low (0.2 mcg/ml) or a high (1.0 mcg/ml) concentration for one hour. […] The suspension was washed with tissue culture medium to remove the drug.
(§4) The suspension was then cultured in a double soft agar suspension. Control cells which had been treated identically, except for exposure to the drugs, were also cultured. After one to two weeks, both the tumor cells and the control cells formed colonies in the soft agar which were enumerated under a microscope. The number of colonies grown from the drug-treated cells was compared to the number of colonies grown from the control cells, and the percentage growth after exposure to the drug was calculated.
(§5) The results are illustrated in Table 1, wherein the various numbers indicate the percentage of growth. For example, a small number like 6 means that the number of colonies is only 6% of the number without addition of the compound. On the other hand, a large number like 120 means that the number of colonies is 20% greater with the compound than without.
(§6) Of the nine tumors for which the higher concentration (1.0 mcg/ml) of the furandione was used, five gave inhibition of colony growth corresponding to borderline sensitive (30-50% growth) and four gave inhibition corresponding to sensitivity (0-30% growth). Clinical drugs are normally tested at 10% of their peak plasma concentration. For the standard chemotherapy drugs shown in Table 1, the low concentration (LO) corresponds to this 10% level, and the high concentration (HI) is at 50% of the peak plasma concentration. Of the same nine tumors, only two would have been rated as sensitive or borderline sensitive to any of the other clinical drugs tested.

human tumor H5318 OVARY = assay: as above; type: cell-based; details: HI: furandione 1.0 mcg/ml; standard drugs 50% of peak plasma concentration; 1 h
Description: as §1, §2, §3, §4, §5, §6

human tumor H5319 BREAST = assay: as above; type: cell-based; details: 1 h
Description: as §1, §2, §3, §4, §5, §6

[1] = system: human tumor H5322 STOMACH; assay: as above; type: cell-based; details: 1 h
Description: as §1, §2, §3, §4, §5, §6

[2] = system: human tumor H5325 SARCOMA; assay: as above; type: cell-based; details: 1 h
Description: as §1, §2, §3, §4, §5, §6

human tumor H5330 THYMUS = assay: as above; type: cell-based; details: 1 h
Description: as §1, §2, §3, §4, §5, §6

human tumor H5331 OVARY = assay: as above; type: cell-based; details: 1 h
Description: as §1, §2, §3, §4, §5, §6

human tumor H5337 COLON = assay: as above; type: cell-based; details: 1 h
Description: as §1, §2, §3, §4, §5, §6

human tumor H5340 ** = assay: as above; type: cell-based; details: 1 h
Description: as §1, §2, §3, §4, §5, §6

human tumor H5349 BREAST = assay: as above; type: cell-based; details: 1 h
Description: as §1, §2, §3, §4, §5, §6

healthy mice = assay: Toxicology testing in healthy mice: hematology; type: in vivo; details: for Absolute Neutrophils / Hemoglobin / WBC: i.p.
Experimental: The purpose of this example was to determine approximate toxicity of the compound 3[(5-methyl-2-thienyl) methylene]-2,4(3H,5H)-furandione in healthy mice. The in vivo concentrations employed in the example were selected by using the in vitro results in the Human Tumor Stem Cell Assay as a guide. The compound was given to the mice by means of intra-peritoneal injection. In addition to a control group which was injected with the appropriate carrier solution without drug, three test groups with calculated plasma concentrations of 1, 10 and 100 mcg/ml (low, medium and high concentrations) were prepared. Based upon the results from Table 1, the three test groups represent low, medium and high concentrations of drug dosages. The highest concentration of 100 mcg/ml is about 10 times the predicted effective dose (in vivo) of tumoricidal activity. Each group contained eight animals. Blood was extracted from four animals in each group two days after the intraperitoneal injection and routine hematology (i.e., a hemoglobin concentration, a white blood cell count, and a neutrophil count) procedures were performed.
Half of the animals in each group were sacrificed after one week (Day 7), and the remaining animals in each group were sacrificed after two weeks (Day 14). Routine hematology was performed at the time of sacrifice.

[3] = HI: furandione 1.0 mcg/ml, standard drugs 50% of peak plasma concentration
[4] = LO: furandione 0.2 mcg/ml, standard drugs 10% of peak plasma concentration
[5] = high, 100 mcg/ml calculated plasma, Day 2
[6] = high, 100 mcg/ml calculated plasma, Day 7
[7] = high, 100 mcg/ml calculated plasma, Day 14
[8] = low, 1 mcg/ml calculated plasma, Day 2
[9] = low, 1 mcg/ml calculated plasma, Day 7
[10] = low, 1 mcg/ml calculated plasma, Day 14
[11] = medium, 10 mcg/ml calculated plasma, Day 2
[12] = medium, 10 mcg/ml calculated plasma, Day 7
[13] = medium, 10 mcg/ml calculated plasma, Day 14

SMILES: Cc1ccc(C=C2C(=O)COC2=O)s1 [Compound 4, 3[(5-methyl-2-thienyl)methylene]2,4(3H,5H)-furandione]
- percentage of growth (colonies vs control) (human tumor H5315 BREAST): 62%
- percentage of growth (colonies vs control) (human tumor H5318 OVARY): 29%
- percentage of growth (colonies vs control) (human tumor H5319 BREAST; [3]): 6%
- percentage of growth (colonies vs control) (human tumor H5319 BREAST; [4]): 210%
- percentage of growth (colonies vs control) [1, 3]: 36%
- percentage of growth (colonies vs control) [1, 4]: 68%
- percentage of growth (colonies vs control) [2, 3]: 22%
- percentage of growth (colonies vs control) [2, 4]: 44%
- percentage of growth (colonies vs control) (human tumor H5330 THYMUS; [3]): 38%
- percentage of growth (colonies vs control) (human tumor H5330 THYMUS; [4]): 79%
- percentage of growth (colonies vs control) (human tumor H5331 OVARY; [3]): 48%
- percentage of growth (colonies vs control) (human tumor H5331 OVARY; [4]): 64%
- percentage of growth (colonies vs control) (human tumor H5337 COLON; [3]): 36%
- percentage of growth (colonies vs control) (human tumor H5337 COLON; [4]): 58%
- percentage of growth (colonies vs control) (human tumor H5340 **; [3]): 50%
- percentage of growth (colonies vs control) (human tumor H5340 **; [4]): 62%
- percentage of growth (colonies vs control) (human tumor H5349 BREAST; [3]): 9%
- percentage of growth (colonies vs control) (human tumor H5349 BREAST; [4]): 82%
- absolute neutrophil count, change (healthy mice; after one week): significant decrease in the absolute neutrophil count after one week, indicating suppression of bone marrow
- total white blood cell count, change (healthy mice; all groups): slightly decreased from Day 2 to Day 7, the count increased in all groups from Day 7 to Day 14
- hemoglobin levels, change (healthy mice; all test groups, 14-day test period): no significant decreases in hemoglobin levels
- myelosuppression in vivo (healthy mice; at drug level predicted by the in vitro assay): some myelosuppression in vivo
- platelet count, change (healthy mice; blood smears): platelet count was not significantly decreased
- Absolute Neutrophils (healthy mice; [5]): 5224 cells/ul
- Hemoglobin (healthy mice; [5]): 13.2 g/100 ml
- WBC (healthy mice; [5]): 9594 Cells/ul
- Hemoglobin (healthy mice; [6]): 13.6 g/100 ml
- WBC (healthy mice; [6]): 5775 Cells/ul
- Absolute Neutrophils (healthy mice; high, 100 mcg/ml calculated plasma, Day 7 (text SD=622), 4 (3H, 5H) FURANDIONE): 1167 cells/ul
- Absolute Neutrophils (healthy mice; high, 100 mcg/ml calculated plasma, Day 7 (text SD=622), listed as tested furandione compound): 1,167 cells/ul
- Absolute Neutrophils (healthy mice; [7]): 2025 cells/ul
- Hemoglobin (healthy mice; [7]): 13.9 g/100 ml
- WBC (healthy mice; [7]): 12,175 Cells/ul
- Absolute Neutrophils (healthy mice; [8]): 2869 cells/ul
- Hemoglobin (healthy mice; [8]): 13.7 g/100 ml
- WBC (healthy mice; [8]): 7000 Cells/ul
- Hemoglobin (healthy mice; [9]): 14.25 g/100 ml
- WBC (healthy mice; [9]): 6562 Cells/ul
- Absolute Neutrophils (healthy mice; low, 1 mcg/ml calculated plasma, Day 7 (text SD=942), 4 (3H, 5H) FURANDIONE): 1731 cells/ul
- Absolute Neutrophils (healthy mice; low, 1 mcg/ml calculated plasma, Day 7 (text SD=942), listed as tested furandione compound): 1,731 cells/ul
- Hemoglobin (healthy mice; [10]): 13.6 g/100 ml
- WBC (healthy mice; [10]): 9675 Cells/ul
- Absolute Neutrophils (healthy mice; low, 1 mcg/ml calculated plasma, Day 14, three animals): 2183 cells/ul
- neutrophil difference vs control (healthy mice; low, 1 mcg/ml, Day 7): no significant difference between the control and the low concentration group
- Absolute Neutrophils (healthy mice; [11]): 3946 cells/ul
- Hemoglobin (healthy mice; [11]): 13.6 g/100 ml
- WBC (healthy mice; [11]): 7787 Cells/ul
- Hemoglobin (healthy mice; [12]): 13.9 g/100 ml
- WBC (healthy mice; [12]): 5812 Cells/ul
- Absolute Neutrophils (healthy mice; medium, 10 mcg/ml calculated plasma, Day 7 (text SD=492), 4 (3H, 5H) FURANDIONE): 1009 cells/ul
- Absolute Neutrophils (healthy mice; medium, 10 mcg/ml calculated plasma, Day 7 (text SD=492), listed as tested furandione compound): 1,009 cells/ul
- Hemoglobin (healthy mice; [13]): 13.6 g/100 ml
- WBC (healthy mice; [13]): 8700 Cells/ul
- Absolute Neutrophils (healthy mice; medium, 10 mcg/ml calculated plasma, Day 14, three animals): 1256 cells/ul
- P, neutrophil difference vs control (healthy mice; medium, 10 mcg/ml, Day 7): < 0.05
